# Literature values, collected in US20030032669A1, “Pesticidal compositions and their use as protecting agents” (priority 2000, published 2003).
# Tests used:
# [1] = system: adult grain weevils Sitophilus granarius; conditions: wheat treated with 1 μg/g; after 50 days
# [2] = system: larvae of German cockroach Blatella germanica; conditions: exposure to 100 ng/cm^2; after 3 weeks
# [3] = aqueous solutions at 50° C.
# [4] = alcohols, ketones and toluene
Compound,phyto-toxicity (plants),degradation in soil,reduction of population of adult grain weevils [1] [%],reduction of population of larvae of German cockroach [2] [%],stability to hydrolysis [3],solubility in organic solvents [4]
"O=C(NC(=O)c1c(F)cccc1F)Nc1ccc(Oc2ccc(C(F)(F)F)cc2Cl)cc1F [flufenoxuron, 1-[4-(2-chloro-trifluoro-p-tolyloxy)-2-fluorophenyl]-3-(2,6-difluorobenzoyl)urea]",no recorded phyto-toxicity,rapidly degraded,,,,
"CCOC(=O)NCCOc1ccc(Oc2ccccc2)cc1 [fenoxycarb, ethyl 2-(4-phenoxyphenoxy)ethylcarbamate]",,rapidly degraded,100,90,stable to hydrolysis,very soluble
